≈ marks a conversion by molar mass, not a printed value.
Experiments:
[1] = Dynamic vapor sorption (DVS), moisture adsorption isotherms; format: physicochemical; details: for water adsorption: 25 °C, at 90% RH
Description: The moisture sorption characteristics of all specimens were assessed at a temperature of 25 °C using an automated dynamic vapor sorption analyzer (Surface Measurement Systems, Wembley, UK). Prior to the sorption examination, the samples were equilibrated at a humidity level of 0% relative humidity (RH) to remove any adsorbed moisture. The specimens underwent a gradual variation in relative humidity, transitioning from 0 to 90% RH at intervals of 10% RH. Humidity was adjusted by increasing it by +10% RH after 6 h or upon achieving the equilibrium condition. The equilibrium condition was met when there was a <0.002% change in mass per minute within a span of 10 min. Upon completion of the sorption sequence, all samples were subjected to drying at 0% RH, which was stopped when the Δm/Δt was less than 0.002%/min within 10 min.

[2] = Intrinsic dissolution rate (IDR); format: physicochemical; details: 37 °C
Description: The powdered sample (140 mg) was measured and compacted to a tablet hardness of 5 Kg by a tester, employing a small manual tablet press. […] Then, 0.3 mL of the solution was withdrawn, at 1 min intervals, and subsequently subjected to centrifugation (15,000 rpm, 3 min). Afterward, it was subjected to double dilution with methanol and analyzed for the presence of the drug using HPLC.

[3] = Solid-state stability, influencing factor testing (strong light, high humidity, elevated temperature); format: physicochemical; details: for stability under influencing factor conditions: 4500 ± 500 lux; for stability under influencing factor conditions / crystal transformation (PXRD): 92.5 ± 5% RH, 50 ± 2 °C; for crystal transformation (PXRD): strong light 4500 ± 500 lux, 0, 5, 10 days; for change of IDR on the 5th and 10th days compared to day 0: strong light, high humidity and high temperature
Description: Influencing factor testing included a strong light irradiation test, a high-humidity test, and an elevated temperature test. The strong light irradiation test involved placement of the sample opening under a light with an intensity of 4500 ± 500 lux. The high-humidity test involved placement of the sample in a constant-humidity container at 25 °C and 92.5% RH (saturated potassium nitrate solution). The high-temperature test involved placing the sample in a DHG-9070A constant-temperature oven (Shanghai Yiheng Technology Instrument Co., Ltd., Shanghai, China), set at 50 °C. Samples were taken on the 0th, 5th, and 10th days, and the crystal structure and dissolution of the samples were assessed for significant differences based on PXRD and IDR, as outlined above.

[4] = Accelerated stability testing; format: physicochemical; details: for stability under accelerated test conditions: 40 °C/75 ± 5% RH; for PXRD spectra under accelerated stability conditions: 40 ± 2 °C/75 ± 5% RH, 0, 3, 6 months
Description: Accelerated testing was utilized to contrast the stability of ABZ and its salts in the solid state. The solid variations were placed in an airtight container at 40 ± 2 °C with a humidity level of 75 ± 5% RH, and specimens were harvested at the intervals of 0, 3, and 6 months. PXRD analysis was used to ascertain whether there were any substantial alterations in dissolution properties and the crystal structure of the sample.

[5] = Pharmacokinetic comparison in Wistar rats after oral administration
Description: In vivo pharmacokinetic examination of albendazole and albendazole salts was performed in a half-male and half-female group of Wistar rats (n = 6), with an average body weight of 200 ± 20 g. The rats were fasted for one night before administration of albendazole at a dose of 25 mg/kg by gavage. Blood sampling was conducted by placing a jugular vein catheter surgically the day before administration. […] The tubes were centrifuged at 13,000× g for 10 min, and the upper plasma was collected and stored in an ultra-low-temperature freezer at −80 °C. Samples were processed by obtaining 100 μL of plasma; then, 400 μL of methanol was added, the samples were vortexed for 1 min, and they were centrifuged at 13,000× g for 5 min. Finally, 300 μL of the supernatant was obtained. A mixture of 6 μL of 10 μG/mL toluidazole internal standard solution was added to the supernatant. After 1 min of vortexing, the samples were centrifuged at 13,000× g for 5 min. The supernatant was then filtered through a microporous filter membrane before employing UPLC-HR-ESI-MS to assess the drug content.
The plasma concentrations of ABZ were assessed using a Dionex Ultimate 3000 RSLC system (Thermo Fisher, Waltham, MA, USA) equipped with an ACQUITY UPLC BEH C18 Column (130 Å, 150 mm × 2.1 mm × 2.6 μm) at a column temperature of 30 ± 1 °C. […] The MS analysis was conducted using a Q-Orbitrap MS coupled with heated electrospray ionization (HESI, Washington, DC, USA). The MS analysis was performed in full MS-ddMS^2 mode, with damping gas in the C-trap and nitrogen used to stabilize the spray. The auxiliary gas heater and capillary temperatures were established and maintained at 350 °C and 320 °C, respectively. In the negative mode, a spray voltage of 3.0 kV and an S-lens RF level of 60 V were employed. The full MS-ddMS^2 scan range was from 150.0000 to 1000.0000 m/z, and the precise molecular weight […] was employed for qualitative analysis. The corresponding peak area was utilized for quantitative analysis, and the MS^2 fragments were employed in further qualitative analysis.
The pharmacokinetic parameters were examined through non-compartment model analysis using DAS 2.0.

[6] = parameters: method as in PMID 12527162; details: cited from earlier work
[7] = parameters: method as in PMID 18938096; details: cited from earlier work
[8] = water at 25 °C; cited from earlier work
[9] = Wistar rats, oral 25 mg/kg, plasma ABZ
[10] = both, Wistar, rat, plasma, po, 25 mg/kg

Compound | water adsorption [1] [%] | IDR ([2]; pH 2 buffer) [mg·cm^−2·min^−1] | IDR ([2]; pH 7.4 buffer) [mg·cm^−2·min^−1] | stability under influencing factor conditions [3] | crystal transformation (PXRD) [3] | change of IDR on the 5th and 10th days compared to day 0 [3] | stability under accelerated test conditions [4] | PXRD spectra under accelerated stability conditions [4] | Cmax increase compared to ABZ ([5]; Wistar rats, oral 25 mg/kg) | MRT(0–24) ([5]; Wistar rats, oral 25 mg/kg) [h] | MRT(0–∞) ([5]; Wistar rats, oral 25 mg/kg) [h] | T1/2 ([5]; Wistar rats, oral 25 mg/kg) [h] | Tmax ([5]; Wistar rats, oral 25 mg/kg) [h] | AUC(0–24) [5, 9] [ng/mL/h] | AUC(0–∞) [5, 9] [ng/mL/h] | Cmax [5, 9] [ng/mL] | also measured
CCCSc1ccc2[nH]c(NC(=O)OC)nc2c1.O=C(O)C(O)C(O)C(=O)O [ABZ-DTA, albendazole D-tartrate] | 70.15 | 0.0730 | 0.0008 | remained stable for 10 days | not observed | no statistically significant difference | remained stable for 6 months | unchanged | ~4.6 times | 6.67 ± 0.61 | 8.92 ± 1.51 | 6.11 ± 1.21 | 1.25 ± 0.61 | 1835.37 ± 379.84 | 1955.94 ± 431.79 | 322.68 ± 68.67 | weight increase by water adsorption ([1]; sharp increase when the RH reached 60%): 47.59%
CCCSc1ccc2nc(NC(=O)OC)[nH]c2c1 [ABZ, Albendazole] | 3.86 | 0.0096 | 0.0004 | – | – | – | – | – | – | – | – | – | – | – | – | – | change of IDR after being placed at 50 °C ([3]; 50 °C, 5 and 10 days vs day 0): increased; half-life ([5]; both, Wistar, rat, in vivo, po, 25 mg/kg): 5.98 ± 3.27 h; AUC(0-inf) [5, 10]: 374 ± 136 ng·h/mL; AUC(0-t) [5, 10]: 352 ± 147 ng·h/mL; Cmax [5, 10]: 69.6 ± 51.7 ng/mL; MRT inf [5, 10]: 9.19 ± 5.1 h; MRT last [5, 10]: 7.07 ± 2.27 h; Tmax [5, 10]: 2.54 ± 1.57 h; log P [6]: 2.54; oral bioavailability in humans [7]: less than 5%; solubility in water [8]: 22.8 µg/mL (≈ 85.9 µM)
CCCSc1ccc2[nH]c(NC(=O)OC)nc2c1.Cl [ABZ-HCl, albendazole hydrochloride] | 37.65 | 0.1128 | 0.0041 | remained stable for 10 days | not observed | no statistically significant difference | remained stable for 6 months | unchanged | ~6.9 times | 7.66 ± 2.08 | 24.65 ± 33.76 | 16.85 ± 23.17 | 1.21 ± 0.68 | 3089.28 ± 1228.16 | 5371.96 ± 4618.85 | 478.96 ± 138.62 | –
CCCSc1ccc2[nH]c(NC(=O)OC)nc2c1.O=C(O)C=CC(=O)O [ABZ-FMA, albendazole fumarate] | 6.72 | 0.0328 | 0.0009 | remained stable for 10 days | not observed | no statistically significant difference | remained stable for 6 months | unchanged | approximately 3.8 times | 6.41 ± 0.66 | 17.53 ± 15.90 | 14.07 ± 14.37 | 1.67 ± 1.17 | 1205.56 ± 855.61 | 1975.42 ± 1856.96 | 260.58 ± 179.73 | –
